Results reported in patent US10307466B2, “Composition comprising sophorolipid, physiologically active substance and oil or fat, and method for producing the same” (SARAYA CO., LTD., priority 2014, dated 2019).

Assay: Binding to phosphatidylcholine-coated silica beads (TRANSIL Intestinal Absorption Kit)
Conditions: compared with the physiologically active substance alone taken as 1; for Relative amount of physiologically active substance bound to the beads, Example (sophorolipid): substance emulsified with sophorolipid; for Relative amount of physiologically active substance bound to the beads, Comparative Example (sucrose fatty acid ester): substance emulsified with sucrose fatty acid ester
Description: In the evaluation herein, the binding of substances to silica beads coated with a phospholipid (phosphatidylcholine) was compared. A higher binding indicates a higher cell membrane transport and a higher intestinal absorption.
An aqueous phase was prepared and the pH was adjusted with a pH adjuster to a pH value of 6. The aqueous phase and an oil phase were heated to 50 to 60° C. The aqueous phase was added to the oil phase. The mixture was stirred with a homogenizer (HG-200, As One Corporation) at a high speed of 10,000 rpm for 10 minutes to give an emulsion.
The affinity with phosphatidylcholine-coated silica beads (TRANSIL Intestinal Absorption Kit, SOVICELL GMBH) was assessed. A volume of 200 μl of PBS (phosphate buffered saline) containing the beads was added to each tube, and 20 μl of each of the compositions was added. The mixture was agitated with a test tube mixer for 12 minutes. The beads were allowed to settle, and the supernatant was collected and diluted to 10-fold. The fluorescence intensity of the supernatant was measured with a spectrophotometer (Hitachi F-2700, excitation wavelength: 494 nm, fluorescence wavelength: 521 nm).
A volume of 200 μl of PBS containing the beads was added to each tube, and 20 μl of each of the compositions was added. The mixture was agitated with a test tube mixer for 12 minutes. The beads were allowed to settle, and the supernatant was removed. The beads were washed with PBS, and 200 μl of methanol was added to elute oil red from the beads. The absorbance of the oil red solution in methanol was measured at 510 nm with an ultraviolet spectrophotometer (Shimadzu UV-1200). The relative amount of the pigment of Example 14 or Comparative Example 4 bound to the beads was calculated, with the obtained value of an oil red solution (Comparative Example 5) taken as 1.
A volume of 200 μl of PBS containing the beads was added to each tube, and 20 μl of each of the compositions was added. The mixture was agitated with a test tube mixer for 12 minutes. The beads were allowed to settle, and the supernatant was removed. The beads were washed with PBS, and 200 μl of methanol was added to elute tocopherol from the beads. The amount of tocopherol was measured by HPLC (Shimadzu LC-10A series). The relative amount of tocopherol of Example 15 or Comparative Example 6 bound to the beads was calculated, with the obtained value of a tocopherol solution (Comparative Example 7) taken as 1.
A volume of 200 μl of PBS containing the beads was added to each tube, and 20 μl of each of the compositions was added. The mixture was agitated with a test tube mixer for 12 minutes. The beads were allowed to settle, and the supernatant was removed. The beads were washed with PBS, and 200 μl of hexane was added to elute DHA from the beads. The amount of DHA was measured by gas chromatography (Shimadzu GC-2014 series).
The relative amount of DHA of Example 16 or Comparative Example 8 bound to the beads was calculated, with the obtained value of a DHA solution (Comparative Example 9) taken as 1.
GC was used for the analysis of eicosapentaenoic acid and linoleic acid. […] An atomic absorption spectrophotometer was used for the analysis of zinc gluconate, copper gluconate, and iron citrate.
The calculated value was expressed by the symbols A, B and C. The affinities of the physiologically active substances were assessed by comparing the cases where each physiologically active substance was emulsified with a sucrose fatty acid ester or the sophorolipid and where each of the physiologically active substances was used alone.

| Substance | Relative amount of physiologically active substance bound to the beads, Example (sophorolipid) | Relative amount of physiologically active substance bound to the beads, Comparative Example (sucrose fatty acid ester) |
| --- | --- | --- |
| Copper gluconate | B (affinity of not less than 2.0-fold and less than 5.0-fold) | C (affinity of less than 2.0-fold) |
| Iron citrate | B (affinity of not less than 2.0-fold and less than 5.0-fold) | C (affinity of less than 2.0-fold) |
| Zinc gluconate | B (affinity of not less than 2.0-fold and less than 5.0-fold) | C (affinity of less than 2.0-fold) |
